From ChEMBL document CHEMBL1149969, “Conformationally restricted inhibitors of the high affinity -glutamate transporter” (Bioorg Med Chem Lett, 1993)

Legend:
[1] = target: Excitatory amino acid transporter 2 (Rattus norvegicus) (UniProt P31596); assay: Attenuation of the sodium-dependent uptake of [3H]D-aspartate into synaptosomes prepared from rat forebrain at 250 uM.; assay type: subcellular; details: Brain
[2] = target: Excitatory amino acid transporter 2 (Rattus norvegicus) (UniProt P31596); assay: Tested for the ability to attenuate the sodium-dependent uptake of [3H]D-aspartate (5 uM) into synaptosomes prepared from rat forebrain at 25 uM; assay type: subcellular; details: Brain
Rattus norvegicus = species: Rattus norvegicus; assay: Tested for the competitive inhibitory activity against D-aspartate transport in rat synaptosomes; assay type: functional, Brain
[3] = The compound was tested for binding affinity towards Excitatory amino acid receptors of rat brain synaptosomes; IE means ineffective; assay type: subcellular
[4] = compound: O=C(O)[C@@H]1CN[C@@H](C(=O)O)C1; assay: Tested for the competitive inhibitory activity against L-glutamate transport in rat synaptosomes; assay type: subcellular; details: Brain

C=C(C)[C@H]1CN[C@H](C(=O)O)[C@H]1CC(=O)O
Control [1]: 39%

CCOCC1[C@H](C(=O)O)CN[C@H]1C(=O)O (stereo partly drawn)
Control [1]: 55%

N[C@@H](CCC(=O)O)C(=O)O
Control [2]: 40%

O=C(O)CC1[C@H](C(=O)O)CN[C@H]1C(=O)O (stereo partly drawn)
Control [1]: 95%

O=C(O)C[C@@H]1CN[C@H](C(=O)O)C1
Control [1]: 74%

O=C(O)C[C@H]1CCN[C@@H]1C(=O)O
Control [1]: 74%

CC(C)[C@H]1CN[C@H](C(=O)O)[C@H]1CC(=O)O (single isomer, unassigned)
Control [2]: 83%
Control [1]: 25%

O=C(O)[C@@H]1CN[C@@H](C(=O)O)C1 (stereo in doubt; form 1) [listing 1 of 2 here]
Ki (Rattus norvegicus): 1.3 µM
Ki [3]: Ineffective

O=C(O)[C@@H]1CCN[C@H]1C(=O)O (stereo in doubt; form 1)
Control [1]: 81%

O=C(O)[C@@H]1CN[C@@H](C(=O)O)C1 (stereo in doubt; form 1) [listing 2 of 2 here]
Control [2]: 18%
Control [1]: 0%

O=C(O)[C@@H]1CN[C@H](C(=O)O)C1 (stereo in doubt; form 1)
Control [1]: 105%

O=C(O)[C@@H]1CN[C@H]1C(=O)O (stereo in doubt; form 1)
Control [1]: 109%

O=C(O)[C@H]1NCC[C@H]1C(=O)O (stereo in doubt; form 1)
Control [2]: 94%
Control [1]: 38%

O=C(O)[C@H]1NC[C@H]1C(=O)O (stereo in doubt; form 1)
Control [2]: 96%
Control [1]: 53%

O=C(O)[C@@H]1CCN[C@H]1C(=O)O (stereo in doubt; form 2)
Control [1]: 107%

O=C(O)[C@@H]1CN[C@@H](C(=O)O)C1 (stereo in doubt; form 2)
Control [2]: 88%
Control [1]: 54%

O=C(O)[C@@H]1CN[C@H](C(=O)O)C1 (stereo in doubt; form 2)
Control [2]: 82%
Control [1]: 36%

O=C(O)[C@@H]1CN[C@H]1C(=O)O (stereo in doubt; form 2)
Control [1]: 100%

O=C(O)[C@H]1NCC[C@H]1C(=O)O (stereo in doubt; form 2)
Control [1]: 108%

O=C(O)[C@H]1NC[C@H]1C(=O)O (stereo in doubt; form 2)
Control [1]: 98%

B1: Excitatory amino acid transporter 2 (Rattus norvegicus), P31596 (protein)
chain: MASTEGANNMPKQVEVRMHDSHLSSEEPKHRNLGMRMCDKLGKNLLLSLTVFGVILGAVCGGLLRLAAPIHPDVVMLIAFPGDILMRMLKMLILPLIISSLITGLSGLDAKASGRLGTRAMVYYMSTTIIAAVLGVILVLAIHPGNPKLKKQLGPGKKNDEVSSLDAFLDLIRNLFPENLVQACFQQIQTVTKKVLVAPPSEEANTTKAVISLLNETMNEAPEETKIVIKKGLEFKDGMNVLGLIGFFIAFGIAMGKMGEQAKLMVEFFNILNEIVMKLVIMIMWYSPLGIACLICGKIIAIKDLEVVARQLGMYMITVIVGLIIHGGIFLPLIYFVVTRKNPFSFFAGIFQAWITALGTASSAGTLPVTFRCLEDNLGIDKRVTRFVLPVGATINMDGTALYEAVAAIFIAQMNGVILDGGQIVTVSLTATLASIGAASIPSAGLVTMLLILTAVGLPTEDISLLVAVDWLLDRMRTSVNVVGDSFGAGIVYHLSKSELDTIDSQHRMHEDIEMTKTQSVYDDTKNHRESNSNQCVYAAHNSVVIDECKVTLAANGKSADCSVEEEPWKREK
Km [4]: 3 µM
